Measurements published in patent US9936701B2, “Herbicidal compounds” (Syngenta Participations AG, priority 2013, dated 2018).

Key:
[1] = test system: a variety of test species; experiment: Pre-emergence herbicidal activity (glasshouse, sprayed one day after sowing, evaluated after 13 days); format: in vivo; design: key: 5=total damage to plant; 0=no damage to plant; conditions: application pre-emergence, rate 1000 g/Ha, scale 0-5
Description: Seeds of a variety of test species were sown in standard soil in pots. After cultivation for one day (pre-emergence) under controlled conditions in a glasshouse (at 24/16° C., day/night; 14 hours light; 65% humidity), the plants were sprayed with an aqueous spray solution derived from the formulation of the technical active ingredient in acetone/water (50:50) solution containing 0.5% Tween 20 (polyoxyethelyene sorbitan monolaurate, CAS RN 9005-64-5). The test plants were then grown in a glasshouse under controlled conditions (at 24/16° C., day/night; 14 hours light; 65% humidity) and watered twice daily. After 13 days, the test was evaluated (5=total damage to plant; 0=no damage to plant).

[2] = test system: a variety of test species; experiment: Post-emergence herbicidal activity (glasshouse, sprayed after 8 days cultivation, evaluated after 13 days); format: in vivo; design: key: 5=total damage to plant; 0=no damage to plant; conditions: rate 1000 g/Ha, scale 0-5
Description: Seeds of a variety of test species were sown in standard soil in pots. After 8 days cultivation (post-emergence) under controlled conditions in a glasshouse (at 24/16° C., day/night; 14 hours light; 65% humidity), the plants were sprayed with an aqueous spray solution derived from the formulation of the technical active ingredient in acetone/water (50:50) solution containing 0.5% Tween 20 (polyoxyethelyene sorbitan monolaurate, CAS RN 9005-64-5). The test plants were then grown in a glasshouse under controlled conditions (at 24/16° C., day/night; 14 hours light; 65% humidity) and watered twice daily. After 13 days, the test was evaluated (5=total damage to plant; 0=no damage to plant).

Row | SMILES | Pre-emergence herbicidal damage score, ABUTH [1] | Pre-emergence herbicidal damage score, ALOMY [1] | Pre-emergence herbicidal damage score, AMARE [1] | Pre-emergence herbicidal damage score, ECHCG [1] | Pre-emergence herbicidal damage score, SETFA [1] | Pre-emergence herbicidal damage score, ZEAMX [1] | ABUTH (Abutilon theophrasti) damage score, application post-emergence [2] | ALOMY (Alopecurus myosuroides) damage score, application post-emergence [2] | AMARE (Amaranthus retroflexus) damage score, application post-emergence [2] | ECHCG (Echinochloa crus-galli) damage score, application post-emergence [2] | SETFA (Setaria faberi) damage score, application post-emergence [2] | ZEAMX (Zea mays) damage score, application post-emergence [2]
1 | CC1=C(Br)C(=O)N(c2cc(C(C)(C)C)on2)C1O (stereo not drawn) [A1] | 5 | 2 | 5 | 4 | 5 | 1 | 5 | 5 | 5 | 5 | 5 | 4
2 | CC1=C(Br)C(=O)N(c2cc(C)on2)C1O (stereo not drawn) [A3] | 5 | 3 | 5 | 3 | 5 | 2 | 5 | 4 | 5 | 5 | 5 | 3
3 | CC1=C(Cl)C(=O)N(c2cc(C)on2)C1O (stereo not drawn) [A4] | 5 | 3 | 5 | 4 | 5 | 2 | 5 | 4 | 5 | 5 | 5 | 3
4 | CC1=C(Br)C(=O)N(c2cc(C(F)(F)F)on2)C1O (stereo not drawn) [A6] | 0 | 1 | 0 | 1 | 1 | 0 | 4 | 2 | 4 | 3 | 2 | 0
5 | COCC(C)(C)c1cc(N2C(=O)C(Cl)=C(C)C2O)no1 (stereo not drawn) [A7] | 5 | 3 | 5 | 4 | 4 | 2 | 5 | 5 | 4 | 5 | 5 | 5
6 | COCC(C)(C)c1cc(N2C(=O)C(Br)=C(C)C2O)no1 (stereo not drawn) [A8] | 5 | 3 | 5 | 4 | 4 | 1 | 5 | 5 | 3 | 5 | 5 | 3
7 | CC1=C(Cl)C(=O)N(c2cc(C(C)(C)C)on2)[C@H]1O [A9] |  |  |  |  |  |  | 5 | 4 | 5 | 5 | 5 | 5
8 | CC1=C(Cl)C(=O)N(c2cc(C(C)(C)C)on2)[C@H]1O [A10] |  |  |  |  |  |  |  |  | 5 | 5 | 5 | 
9 | CCC1=C(I)C(=O)N(c2cc(C(C)(C)C)on2)C1O (stereo not drawn) [A13] | 3 | 3 | 5 | 3 | 3 | 1 | 5 | 5 | 5 | 5 | 5 | 2
10 | CCC1=C(Br)C(=O)N(c2cc(C(C)(C)C)on2)C1O (stereo not drawn) [A14] | 5 | 3 | 5 | 4 | 5 | 2 | 5 | 5 | 4 | 5 | 5 | 4
11 | CC(C)(C)c1cc(N2C(=O)C(Cl)=C(C3CC3)C2O)no1 (stereo not drawn) [A15] | 5 | 2 | 5 | 4 | 3 | 2 | 5 | 4 | 5 | 5 | 5 | 3
12 | CCC1=C(Cl)C(=O)N(c2cc(C(C)(C)C)on2)C1O (stereo not drawn) [A16] | 5 | 4 | 5 | 5 | 5 | 3 | 5 | 5 | 5 | 5 | 5 | 5
13 | CC1=C(I)C(=O)N(c2cc(C(C)(C)C)on2)[C@H]1O [A17] | 3 | 2 | 5 | 5 | 3 | 2 | 5 | 5 | 5 | 5 | 5 | 4
14 | CC(C)C1=C(Cl)C(=O)N(c2cc(C(C)(C)C)on2)C1O (stereo not drawn) [A18] | 4 | 4 | 1 | 2 | 3 | 1 | 5 | 5 | 4 | 5 | 5 | 3
15 | CCCC1=C(Cl)C(=O)N(c2cc(C(C)(C)C)on2)C1O (stereo not drawn) [A27] | 5 | 4 | 5 | 5 | 4 | 4 | 5 | 5 | 5 | 5 | 5 | 4
